In ChEMBL document CHEMBL4610033, “(1-4)-Thiodisaccharides as anticancer agents. Part 5. Evaluation of anticancer activity and investigation of mechanism of action” (Bioorg Med Chem Lett, 2020):
Active and inactive are the calls of the source. The calls are words filed in the database; no cut-off is given here.

Assays:
[1] = organism: Homo sapiens; experiment: Inhibition of TrxR in human […] cells assessed as reduction in intracellular thiol levels at IC20 after 1 hr by DNTB reagent based assay relative to control; type: cell-based; parameters: scale not given: the % may be the effect or the level left
[2] = Drug accumulation in human U87 cells after 2 hrs by microbeta liquid scintillation counting analysis; type: ADME, cell-based; conditions: u-87mg atcc
[3] = test system: U-87 MG; experiment: Induction of endoplasmic reticulum stress in human U87 cells assessed as DDIT3 expression at IC20 after 2 hrs by ELISA relative to control; type: functional, U-87MG ATCC
[4] = test system: U-87 MG; experiment: Anticlonogenic activity against human U87 cells assessed as ratio of the number of colonies to the number of cells seeded at IC20 incubated for 14 days followed by replating and measured after 2 weeks by crystal violet staining based microscopic analysis (reference value: 100%); type: functional, U-87MG ATCC
[5] = Induction of apoptosis in human H7PX cells assessed as reduction in bcl2 gene expression at IC20 after 4 hrs by RT-PCR analysis relative to untreated control; type: functional
[6] = organism: Homo sapiens; experiment: Inhibition of TrxR in human H7PX cells at IC20 incubated for 1 hr and measured after 4 hrs by TRFS-GREEN dye based fluorescence microscopic analysis; type: cell-based
[7] = test system: U-87 MG; experiment: Induction of apoptosis in human U87 cells assessed as reduction in bcl2 gene expression at IC20 after 4 hrs by RT-PCR analysis relative to untreated control; type: functional, U-87MG ATCC
[8] = test system: U-87 MG; experiment: Induction of endoplasmic reticulum stress in human U87 cells assessed as DNAJC3 expression at IC20 after 2 hrs by ELISA relative to control; type: functional, U-87MG ATCC
[9] = Anticlonogenic activity against human H7PX cells assessed as ratio of the number of colonies to the number of cells seeded at IC20 incubated for 14 days followed by replating and measured after 2 weeks by crystal violet staining based microscopic analysis (reference value: 100%); type: functional
[10] = Induction of apoptosis in human H6PX cells assessed as apoptotic cells at IC20 after 4 hrs by AnnexinV-FITC/PI staining based flow cytometry analysis (reference value: 9.7%); type: functional
[11] = test system: U-87 MG; experiment: Induction of endoplasmic reticulum stress in human U87 cells assessed as GRP78 expression at IC20 after 2 hrs by ELISA relative to control; type: functional, U-87MG ATCC
[12] = test system: U-87 MG; experiment: Induction of endoplasmic reticulum stress in human U87 cells assessed as EDEM expression at IC20 after 2 hrs by ELISA relative to control; type: functional, U-87MG ATCC
[13] = test system: U-87 MG; experiment: Induction of apoptosis in human U87 cells assessed as increase in FASLG gene expression at IC20 after 4 hrs by RT-PCR analysis relative to untreated control; type: functional, U-87MG ATCC
[14] = Induction of apoptosis in human H6PX cells assessed as increase in FASLG gene expression at IC20 after 4 hrs by RT-PCR analysis relative to untreated control; type: functional
[15] = test system: U-87 MG; experiment: Induction of endoplasmic reticulum stress in human U87 cells assessed as DNAJC3 expression at IC20 after 1 hr by ELISA relative to control; type: functional, U-87MG ATCC
[16] = test system: U-87MG ATCC; experiment: Inhibition of TrxR in human U87 cells assessed as reduction in intracellular thiol levels at IC20 after 1 hr by DNTB reagent based assay relative to control; type: cell-based; parameters: scale not given: the % may be the effect or the level left
[17] = test system: U-87 MG; experiment: Antiproliferative activity against human U87 cells assessed as reduction in cell viability after 14 hrs by CCK8 assay; type: functional, cell-based, U-87MG ATCC
[18] = test system: U-87 MG; experiment: Induction of endoplasmic reticulum stress in human U87 cells assessed as DDIT3 expression at IC20 after 1 hr by ELISA relative to control; type: functional, U-87MG ATCC
[19] = Induction of apoptosis in human H7PX cells assessed as increase in FASLG gene expression at IC20 after 4 hrs by RT-PCR analysis relative to untreated control; type: functional
[20] = Anticlonogenic activity against human H6PX cells assessed as ratio of the number of colonies to the number of cells seeded at IC20 incubated for 14 days followed by replating and measured after 2 weeks by crystal violet staining based microscopic analysis (reference value: 100%); type: functional
[21] = Induction of apoptosis in human H6PX cells assessed as viable cells at IC20 after 4 hrs by AnnexinV-FITC/PI staining based flow cytometry analysis (reference value: 90.3%); type: functional
[22] = test system: U-87 MG; experiment: Induction of endoplasmic reticulum stress in human U87 cells assessed as GRP78 expression at IC20 after 1 hr by ELISA relative to control; type: functional, U-87MG ATCC
[23] = test system: U-87 MG; experiment: Induction of apoptosis in human U87 cells assessed as viable cells at IC20 after 4 hrs by AnnexinV-FITC/PI staining based flow cytometry analysis (reference value: 93.1%); type: functional, U-87MG ATCC
[24] = test system: U-87 MG; experiment: Induction of endoplasmic reticulum stress in human U87 cells assessed as PDIA4 expression at IC20 after 2 hrs by ELISA relative to control; type: functional, U-87MG ATCC
[25] = organism: Homo sapiens; experiment: Inhibition of TrxR in human H6PX cells assessed as reduction in intracellular thiol levels at IC20 after 1 hr by DNTB reagent based assay relative to control; type: cell-based; parameters: scale not given: the % may be the effect or the level left
[26] = test system: U-87 MG; experiment: Inhibition of protein synthesis in human U87 cells at IC20 for 14 hrs in presence of labeled methionine by fluorescence microscopic analysis; type: functional, cell-based; conditions: U-87MG ATCC
[27] = Antiproliferative activity against human H7PX cells assessed as reduction in cell viability after 14 hrs by CCK8 assay; type: functional, cell-based
[28] = organism: Homo sapiens; experiment: Inhibition of protein synthesis in human H7PX cells at IC20 for 14 hrs in presence of labeled methionine by fluorescence microscopic analysis; type: functional, cell-based
[29] = test system: U-87MG ATCC; experiment: Inhibition of TrxR in human U87 cells at IC20 incubated for 1 hr and measured after 4 hrs by TRFS-GREEN dye based fluorescence microscopic analysis; type: cell-based
[30] = Induction of apoptosis in human H6PX cells assessed as reduction in bcl2 gene expression at IC20 after 4 hrs by RT-PCR analysis relative to untreated control; type: functional
[31] = test system: U-87 MG; experiment: Induction of endoplasmic reticulum stress in human U87 cells assessed as EDEM expression at IC20 after 1 hr by ELISA relative to control; type: functional, U-87MG ATCC
[32] = test system: U-87 MG; experiment: Induction of endoplasmic reticulum stress in human U87 cells assessed as PDIA4 expression at IC20 after 1 hr by ELISA relative to control; type: functional, U-87MG ATCC
[33] = test system: U-87 MG; experiment: Induction of apoptosis in human U87 cells assessed as apoptotic cells at IC20 after 4 hrs by AnnexinV-FITC/PI staining based flow cytometry analysis (reference value: 6.9%); type: functional, U-87MG ATCC
[34] = test system: U-87 MG; experiment: Induction of ROS generation in human U87 cells at IC20 incubated for 1 hr by CM-H2DCFDA staining based microplate reader analysis; type: functional, cell-based; conditions: U-87MG ATCC
[35] = test system: U-87MG ATCC; experiment: Inhibition of TrxR in human U87 cells at IC20 incubated for 1 hr and measured up to 4 hrs by DNTB-reagent based colorimetric assay; type: cell-based
[36] = Induction of apoptosis in human H7PX cells assessed as apoptotic cells at IC20 after 4 hrs by AnnexinV-FITC/PI staining based flow cytometry analysis (reference value: 9.6%); type: functional
[37] = Antiproliferative activity against human H6PX cells assessed as reduction in cell viability after 14 hrs by CCK8 assay; type: functional, cell-based
[38] = organism: Homo sapiens; experiment: Inhibition of protein synthesis in human H6PX cells at IC20 for 14 hrs in presence of labeled methionine by fluorescence microscopic analysis; type: functional, cell-based
[39] = organism: Homo sapiens; experiment: Inhibition of TrxR in human H6PX cells at IC20 incubated for 1 hr and measured after 4 hrs by TRFS-GREEN dye based fluorescence microscopic analysis; type: cell-based
[40] = organism: Homo sapiens; experiment: Inhibition of TrxR in human H6PX cells at IC20 incubated for 1 hr and measured up to 4 hrs by DNTB-reagent based colorimetric assay; type: cell-based
[41] = Drug uptake in human U87 cells after 2 hrs by microbeta liquid scintillation counting analysis; type: ADME, cell-based; conditions: u-87mg atcc
[42] = organism: Homo sapiens; experiment: Inhibition of TrxR in human H7PX cells at IC20 incubated for 1 hr and measured up to 4 hrs by DNTB-reagent based colorimetric assay; type: cell-based
[43] = Induction of apoptosis in human H7PX cells assessed as viable cells at IC20 after 4 hrs by AnnexinV-FITC/PI staining based flow cytometry analysis (reference value: 90.4%); type: functional

CC(=O)OC[C@H]1O[C@@H](S[C@@H]2CC(=O)[C@@H]3OC[C@H]2O3)[C@H](OC(C)=O)[C@@H](OC(C)=O)[C@@H]1OC(C)=O
Activity [1]: 19.7%
Drug uptake [2]: Not Active
fold change (FC) [3]: 0.11
Activity [4]: 40%
fold change (FC) [5]: -0.69
inhibition [6]: Active
fold change (FC) [7]: -0.35
fold change (FC) [8]: 2.43
Activity [9]: 63%
Activity [10]: 80.4%
fold change (FC) [11]: 1.38
fold change (FC) [12]: 1.1
fold change (FC) [13]: 3.25
fold change (FC) [14]: 4.46
fold change (FC) [15]: 1.07
Activity [16]: 11.8%
IC20 [17]: 51.4 µM
IC50 [17]: 65.2 µM
fold change (FC) [18]: 7.01
fold change (FC) [19]: 6.12
Activity [20]: 46%
Activity [21]: 19.6%
fold change (FC) [22]: 1.81
Activity [23]: 37.8%
fold change (FC) [24]: 1.24
Activity [25]: 22.3%
inhibition [26]: Active
IC20 [27]: 134 µM
IC50 [27]: 158 µM
inhibition [28]: Active
inhibition [29]: Active
fold change (FC) [30]: -0.4
fold change (FC) [31]: 2.39
fold change (FC) [32]: 1.9
Activity [33]: 62.2%
Activity [34]: Active
inhibition [35]: Active
Activity [36]: 43.3%
IC20 [37]: 113 µM
IC50 [37]: 133 µM
inhibition [38]: Active
inhibition [39]: Active
inhibition [40]: Active
Drug uptake [41]: Active
inhibition [42]: Active
Activity [43]: 56.7%

O=C(O)c1ccccc1S[C@@H]1CC(=O)[C@@H]2OC[C@H]1O2
Activity [4]: 86%
Activity [9]: 98%
IC20 [17]: 784 µM
IC50 [17]: 922 µM
Activity [20]: 75%
IC20 [27]: 654 µM
IC50 [27]: 736 µM
IC20 [37]: 922 µM
IC50 [37]: 955 µM
